Measurements published in ChEMBL document CHEMBL1140768, “Constituents of Brazilian red propolis and their preferential cytotoxic activity against human pancreatic PANC-1 cancer cell line in nutrient-deprived condition” (2008).

Tested on: PANC-1
Assay: Cytotoxicity against human PANC1 cells in nutrient deprived medium after 24 hrs
Assay type: functional

Structure (SMILES)	CD100 [µM]
COc1cc([C@@H]2OC[C@@H]3[C@H]2CO[C@H]3c2ccc(O)c(OC)c2)ccc1O [(+)-PINORESINOL]	>100
COc1ccc(-c2coc3cc(O)cc(O)c3c2=O)cc1 [BIOCHANIN]	>100
O=C1C[C@@H](c2ccc(O)cc2)Oc2cc(O)ccc21 [LIQUIRTIGENIN]	>100
O=C1C[C@@H](c2ccccc2)Oc2cc(O)c(O)c(O)c21	>100
COc1ccc([C@H]2OC[C@H]3[C@@H]2CO[C@@H]3c2ccc(OC)c(OC)c2)cc1OC [(+)-EUDESMIN]	>100
COc1ccc2c(c1)O[C@H]1c3ccc(O)c(O)c3OC[C@@H]21	25
COc1cc(O)ccc1[C@H]1COc2cc(O)ccc2C1	>100
COc1c(O)cc2c(c1O)C(=O)C[C@@H](c1ccccc1)O2 [DIHYDROOROXYLIN A]	>100
COc1ccc(-c2coc3cc(O)cc(O)c3c2=O)c(O)c1	>100
COc1ccc2c(c1)O[C@H]1c3ccc(O)c(OC)c3OC[C@@H]21	>100
COc1cc2c(cc1OC)[C@@H]1COc3cc(O)ccc3[C@@H]1O2 [SECUNDIFLOROL I]	>100
COc1ccc(-c2coc3cc(O)ccc3c2=O)cc1 [FORMONONETIN]	>100
O=C1c2ccc(O)cc2OC1(O)Cc1ccc(O)cc1 (centres undefined)	>100
O=C1C[C@@H](c2ccccc2)Oc2cc(O)ccc21	>100
COc1ccc2c(C)c(-c3ccc(O)cc3O)oc2c1	50
COc1ccc(-c2coc3cc(O)ccc3c2=O)c(O)c1 [XENOGNOSIN B]	>100
COc1c(O)cc2c(c1O)C(=O)[C@H](O)[C@@H](c1ccccc1)O2 [ALNUSTINOL]	>100
CCO[C@@]12COc3cc(O)ccc3[C@@H]1Oc1cc(OC)ccc12	>100
O=C1c2ccc(O)cc2O[C@H](c2ccc(O)cc2)[C@H]1O [GARBANZOL]	>100
COc1ccc(-c2coc3cc(O)ccc3c2=O)cc1O [CALYCOSIN]	>100
COc1ccc([C@H]2COc3cc(O)ccc3C2=O)c(O)c1	>100
COc1ccc(-c2coc3cc(O)cc(O)c3c2=O)cc1O [PRATENSEIN]	>100

Structure (SMILES)	CD100 [µM]
CC(=O)O[C@H]1C(=O)[C@@]2(C)[C@H]([C@H](OC(=O)c3ccccc3)[C@]3(O)C[C@H](OC(=O)[C@H](O)[C@@H](NC(=O)c4ccccc4)c4ccccc4)C(C)=C1C3(C)C)[C@]1(OC(C)=O)CO[C@@H]1C[C@@H]2O [PACLITAXEL]	>100
COc1c(O)cc2oc(-c3ccccc3)c(O)c(=O)c2c1O [ALNUSIN]	>100
COc1ccc([C@H]2COc3cc(O)ccc3C2)c(OC)c1O [MUCRONULATOL]	>100
COc1cc(C[C@H]2C(=O)OC[C@@H]2Cc2ccc(OC)c(OC)c2)ccc1O [ARCTIGENIN]	1
COc1cc([C@H]2OC[C@H]3[C@@H]2CO[C@@H]3c2cc(OC)c(O)c(OC)c2)cc(OC)c1O [SYRINGARESINOL]	>100
O=C(/C=C/c1ccccc1)c1ccc(O)cc1O [2',4'-DIHYDROXYCHALCONE]	>100
O=C1C[C@@H](c2ccc(O)cc2)Oc2cc(O)cc(O)c21 [NARINGENIN]	>100
COc1cc(O)ccc1C(=O)/C=C/c1ccc(O)cc1	>100
C=C[C@@H](c1ccccc1)c1cc(O)c(OC)cc1OC	>100
O=C(c1ccc(O)cc1O)[C@@H](O)Cc1ccc(O)cc1	>100
O=c1[nH]cc(F)c(=O)[nH]1 [FLUOROURACIL]	>100
COc1ccc([C@H]2COc3cc(O)ccc3C2)c(O)c1	>100
COc1cc2c(cc1O)O[C@H](c1ccccc1)CC2=O	50
COc1ccc([C@H]2COc3cc(O)ccc3C2=O)c(OC)c1O	>100
O=C(/C=C/c1ccc(O)cc1)c1ccc(O)cc1O [ISOLIQUIRITIGENIN]	>100
COc1ccc([C@H]2COc3cc(O)cc(O)c3C2=O)c(O)c1	>100
COc1ccc2c(c1)O[C@@H]1c3ccc(O)cc3OC[C@H]21	50
COc1ccc([C@H]2COc3cc(OC)ccc3C2)c(O)c1	25
O=C1c2ccc(O)cc2O[C@H](c2ccccc2)[C@H]1O	>100
COc1ccc2c(c1O)O[C@@H]1c3ccc(O)cc3OC[C@H]21	50
COc1cc2c(cc1O)O[C@H](c1ccccc1)[C@@H](O)C2=O	>100
O=c1c(-c2ccc(O)cc2)coc2cc(O)ccc12 [DAIDZEIN]	>100
